Test results: patent US12466820B2, “Amino quinazoline derivatives as P2X3 inhibitors” (CHIESI FARMACEUTICI S.p.A., priority 2019, dated 2025)

Key:
h P2X2/3 = target: T1, h P2X2/3 (Homo sapiens, UniProt P56373+Q9UBL9); test: In vitro electrophysiology assay for P2X2/3 (same protocol, 10 μM ATP as agonist); assay type: cell-based; conditions: Table 7, range of activity
T1 sequence (P56373 1-397): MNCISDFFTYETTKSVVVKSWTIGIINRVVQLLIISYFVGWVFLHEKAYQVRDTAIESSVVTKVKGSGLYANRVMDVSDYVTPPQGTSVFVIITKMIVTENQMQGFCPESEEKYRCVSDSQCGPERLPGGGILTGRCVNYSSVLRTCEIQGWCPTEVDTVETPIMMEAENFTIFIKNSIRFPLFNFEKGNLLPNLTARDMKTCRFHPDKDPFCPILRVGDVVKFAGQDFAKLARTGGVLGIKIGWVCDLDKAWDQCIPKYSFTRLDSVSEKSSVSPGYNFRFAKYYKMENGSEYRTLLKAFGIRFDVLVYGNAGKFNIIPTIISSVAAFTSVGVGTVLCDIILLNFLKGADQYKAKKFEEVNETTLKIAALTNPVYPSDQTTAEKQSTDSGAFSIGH
T1 sequence (Q9UBL9 1-471): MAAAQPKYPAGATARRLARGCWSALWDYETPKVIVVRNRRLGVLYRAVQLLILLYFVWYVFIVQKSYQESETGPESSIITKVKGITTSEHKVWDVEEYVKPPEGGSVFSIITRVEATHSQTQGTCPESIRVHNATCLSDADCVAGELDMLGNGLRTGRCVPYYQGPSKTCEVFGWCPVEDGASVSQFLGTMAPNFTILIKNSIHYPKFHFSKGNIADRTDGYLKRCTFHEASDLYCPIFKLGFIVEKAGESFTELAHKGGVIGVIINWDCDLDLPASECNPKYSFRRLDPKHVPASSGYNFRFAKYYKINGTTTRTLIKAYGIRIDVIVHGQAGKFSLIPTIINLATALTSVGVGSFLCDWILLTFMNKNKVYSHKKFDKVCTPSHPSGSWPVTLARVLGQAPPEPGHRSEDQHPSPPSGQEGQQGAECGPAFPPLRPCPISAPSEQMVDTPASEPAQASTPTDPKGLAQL
Description: Cells expressing P2X3 receptors were grown according to standard practice and maintained at 37° C. in a 5% humidified CO2 atmosphere. The cells were seeded into T175 flask 2 days prior to the day of the assay and dissociated from the flasks using TrypLE when grown to confluence of 80-90%. The dissociated cells were resuspended in serum free media at a cell density of 3×10^6 cells/ml and loaded onto the Sophion Qube automated patch-clamp system. The extracellular assay buffer contained 145 mM NaCl, 4 mM KCl, 2 mM CaCl2), 1 mM MgCl2, 10 mM HEPES, and 10 mM glucose at pH 7.4. The intracellular assay solution contained 140 mM CsF, 10 mM NaCl, 10 mM EGTA, 10 mM HEPES at pH 7.2. Agonist stock solutions were prepared in H2O and diluted in bath solution prior to use. All antagonists were prepared as 10 mM stock solutions in DMSO and diluted in bath solution prior to use. All experiments were performed under the whole-cell patch clamp configuration at room temperature with 384 individual cells being voltage clamped at −60 mV simultaneously on the Sophion Qube instrument. Two baseline responses were established with the application of α,β-MeATP (800 nM), with the subsequent agonist applications being washed out using extracellular assay buffer containing 0.5 U/ml apyrase. Following the second agonist application, antagonist was incubated in the absence of α,β-MeATP for 10 minutes. After antagonist preincubation, 800 nM α,β-MeATP and antagonist were co-administered to determine the inhibitory effect of the antagonist. One concentration of an antagonist was assessed against a single cell, with different concentrations of the antagonist applied to other cells on the 384 recording substrate. The control P2X3 current amplitude was taken from the peak current amplitude from the second agonist response prior to preincubation with antagonist. The peak P2X3 current amplitude in the presence of antagonist was used to calculate the inhibitory effect at each concentration of the antagonist according to the following equation: […]
Concentration-response curves were constructed from ten different concentrations with each concentration of antagonist tested on at least two individual cells. The concentration of the antagonist to inhibit P2X3 current by 50% (IC50) was determined by fitting the data with the following equation: […]
Where ‘a’ is minimum response, ‘b’ is maximum response, ‘c’ is IC50 and ‘d’ is Hill slope.
Representative compound of the present invention have been also tested for P2X2/3 receptor.
The same assay protocol was used for the P2X2/3 assay as the P2X3 assay with two modifications: 1) 10 μM ATP was used as the agonist; and 2) the mean current amplitude was measured seven seconds after the application of agonist.

h P2X3 = target: T2, h P2X3 (Homo sapiens, UniProt P56373); test: In vitro electrophysiology assay for P2X3 (automated whole-cell patch clamp, Sophion Qube); assay type: cell-based; conditions: range of activity
T2 sequence (P56373 1-397): T1 sequence (P56373 1-397)
In short: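 Whole-cell automated patch clamp at room temperature, cells held at −60 mV; after two 800 nM α,β-MeATP baseline responses, antagonist preincubated 10 min then co-applied with 800 nM α,β-MeATP. Inhibition of peak current vs second agonist response; IC50 from 10-concentration curves, one concentration per cell.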

[1] = Table 6, inhibition of P2X3 current, agonist α,β-MeATP (800 nM)

Structure (SMILES)	IC50 (h P2X2/3) [nM]	IC50 (h P2X3; [1]) [nM]	IC50 (h P2X3; Table 7) [nM]
COc1cc(-c2ncc(C)s2)cc2c(NCc3ccc(C(F)(F)F)cn3)ncnc12 [Example 116, 8-methoxy-6-(5-methylthiazol-2-yl)-N-((5-(trifluoromethyl)pyridin-2-yl)methyl)quinazolin-4-amine]	316 to 3160	< 316	< 316
COc1cc(-c2ncc(C)cn2)cc2c(NC(CO)c3nc(C)no3)ncnc12 (single isomer, unassigned) [Example 166]	3160 to 31600	< 316	< 316
COc1cc(-c2ccc(F)cn2)cc2c(NC(C)c3ccc(C(F)(F)F)nn3)ncnc12 (single isomer, unassigned) [Example 169, 6-(5-fluoro-2-pyridyl)-8-methoxy-N-[1-[6-(trifluoromethyl)pyridazin-3-yl]ethyl]quinazolin-4-amine]	3160 to 31600	< 316	< 316
COc1cc(-c2ccc(C)cn2)cc2c(NC(C)c3nnc(C)s3)ncnc12 (single isomer, unassigned) [Example 127, 8-methoxy-6-(5-methyl-2-pyridyl)-N-[1-(5-methyl-1,3,4-thiadiazol-2-yl)ethyl]quinazolin-4-amine]	3160 to 31600	< 316	< 316
COc1cc(-c2ccc(C)cn2)cc2c(NCc3cc(C)no3)ncnc12 [Example 137, 8-methoxy-N-((3-methylisoxazol-5-yl)methyl)-6-(5-methylpyridin-2-yl)quinazolin-4-amine]	3160 to 31600	< 316	< 316
COc1cc(-c2ncc(C)cc2F)cc2c(N[C@H](C)c3noc(C)n3)ncnc12 [Example 157, 6-(3-fluoro-5-methyl-2-pyridyl)-8-methoxy-N-[(1R)-1-(5-methyl-1,2,4-oxadiazol-3-yl)ethyl]quinazolin-4-amine]	3160 to 31600	< 316	< 316
COc1cc(-c2ccc(F)cn2)cc2c(NC(C)c3nnc(C)s3)ncnc12 (single isomer, unassigned) [Example 173, 6-(5-fluoropyridin-2-yl)-8-methoxy-N-(1-(5-methyl-1,3,4-thiadiazol-2-yl)ethyl)quinazolin-4-amine]	3160 to 31600	316 to 3160	316 to 3160
COc1cc(-c2ccc(C)cn2)cc2c(NC(C)c3nc(C)no3)ncnc12 (single isomer, unassigned) [Example 163, 8-Methoxy-N-[1-(3-methyl-1,2,4-oxadiazol-5-yl)ethyl]-6-(5-methyl-2-pyridyl)quinazolin-4-amine]	3160 to 31600	< 316	< 316
COc1cc(-c2ccc(C)cn2)cc2c(N[C@H](C)c3ccn(C)n3)ncnc12 [Example 159, 8-methoxy-N-[(1R)-1-(1-methylpyrazol-3-yl)ethyl]-6-(5-methyl-2-pyridyl)quinazolin-4-amine]	3160 to 31600	< 316	< 316
COc1cc(-c2ncc(C)cn2)cc2c(NC(C)c3nc(C)no3)ncnc12 (single isomer, unassigned) [Example 123, 8-Methoxy-N-[1-(3-methyl-1,2,4-oxadiazol-5-yl)ethyl]-6-(5-methylpyrimidin-2-yl)quinazolin-4-amine]	3160 to 31600	< 316	< 316
COc1cc(-c2ccc(C)cn2)cc2c(NCc3nnc(C)o3)ncnc12 [Example 143, 8-methoxy-N-[(5-methyl-1,3,4-oxadiazol-2-yl)methyl]-6-(5-methyl-2-pyridyl)quinazolin-4-amine]	3160 to 31600	< 316	< 316
COc1cc(-c2ccc(F)cn2)cc2c(NC(C)c3nc(C)no3)ncnc12 (stereo not drawn) [Example 2, 6-(5-fluoropyridin-2-yl)-8-methoxy-N-(1-(3-methyl-1,2,4-oxadiazol-5-yl)ethyl)quinazolin-4-amine]	3160 to 31600	< 316	< 316
COc1cc(-c2ncc(C)cn2)cc2c(NCc3ccn(C)c(=O)c3)ncnc12 [Example 151, 4-(((8-methoxy-6-(5-methylpyrimidin-2-yl)quinazolin-4-yl)amino)methyl)-1-methylpyridin-2(1H)-one]	316 to 3160	< 316	< 316
COc1cc(-c2ncc(C)cn2)cc2c(NCc3cccc(=O)[nH]3)ncnc12 [Example 152, 6-(((8-methoxy-6-(5-methylpyrimidin-2-yl)quinazolin-4-yl)amino)methyl)pyridin-2(1H)-one]	3160 to 31600	< 316	< 316
COc1cc(-c2ccc(F)cn2)cc2c(NCc3ccc(C)nc3)ncnc12 [Example 149, 6-(5-fluoropyridin-2-yl)-8-methoxy-N-((6-methylpyridin-3-yl)methyl)quinazolin-4-amine]	3160 to 31600	< 316	< 316
Cc1ccc(CNc2ncnc3c(OC4CCOCC4)cc(-c4ccc(F)cn4)cc23)nn1 [Example 30, 6-(5-fluoro-2-pyridyl)-N-[(6-methylpyridazin-3-yl)methyl]-8-tetrahydropyran-4-yloxy-quinazolin-4-amine]	3160 to 31600	316 to 3160	316 to 3160
COc1cc(-c2ncc(C)cn2)cc2c(NC(C)c3nnc(C)o3)ncnc12 (single isomer, unassigned) [Example 129]	3160 to 31600	< 316	< 316
COc1cc(-c2ncc(C)cn2)cc2c(N[C@H](C)c3noc(C)n3)ncnc12 [Example 7, 8-Methoxy-N-[(1R)-1-(5-methyl-1,2,4-oxadiazol-3-yl)ethyl]-6-(5-methylpyrimidin-2-yl)quinazolin-4-amine]	3160 to 31600	316 to 3160	316 to 3160
COc1cc(-c2ncc(C)cn2)cc2c(NCc3ccc(C(F)(F)F)nc3)ncnc12 [Example 155]	316 to 3160	< 316	< 316
COc1cc(-c2ncc(C)s2)cc2c(NC(C)c3noc(C)n3)ncnc12 (stereo not drawn) [Example 107, 8-methoxy-N-(1-(5-methyl-1,2,4-oxadiazol-3-yl)ethyl)-6-(5-methylthiazol-2-yl)quinazolin-4-amine]	316 to 3160	< 316	< 316
Cc1cnc(-c2cc(OC3CCOCC3)c3ncnc(NC(C)c4ccc(C)nn4)c3c2)nc1 (single isomer, unassigned) [Example 28, N-[1-(6-methylpyridazin-3-yl)ethyl]-6-(5-methylpyrimidin-2-yl)-8-tetrahydropyran-4-yloxy-quinazolin-4-amine]	316 to 3160	< 316	< 316
COc1cc(-c2ccc(F)cn2)cc2c(NCc3ccc(C(F)(F)F)nc3)ncnc12 [Example 150, 6-(5-fluoropyridin-2-yl)-8-methoxy-N-((6-(trifluoromethyl)pyridin-3-yl)methyl)quinazolin-4-amineamine]	3160 to 31600	< 316	< 316
